Measured values: the NIST ThermoML archive (doi:10.1016/j.fluid.2016.02.009)

Details: Liquid, Vibrating tube method

CCCOCCC [dipropyl ether]
Details | mass density [kg/m3]
283.15 K, 100 kPa | 757.39
283.15 K, 5000 kPa | 762.38
283.15 K, 10000 kPa | 767.05
283.15 K, 15000 kPa | 771.45
283.15 K, 20000 kPa | 775.62
283.15 K, 25000 kPa | 779.52
283.15 K, 30000 kPa | 783.28
283.15 K, 35000 kPa | 786.9
283.15 K, 40000 kPa | 790.38
283.15 K, 45000 kPa | 793.67
283.15 K, 50000 kPa | 796.87
283.15 K, 55000 kPa | 800.02
283.15 K, 60000 kPa | 802.99
283.15 K, 65000 kPa | 805.87
288.15 K, 100 kPa | 752.52
288.15 K, 5000 kPa | 757.69
288.15 K, 10000 kPa | 762.5
288.15 K, 15000 kPa | 767.01
288.15 K, 20000 kPa | 771.21
288.15 K, 25000 kPa | 775.22
288.15 K, 30000 kPa | 779.05
288.15 K, 35000 kPa | 782.73
288.15 K, 40000 kPa | 786.26
288.15 K, 45000 kPa | 789.68
288.15 K, 50000 kPa | 792.99
288.15 K, 55000 kPa | 796.16
288.15 K, 60000 kPa | 799.26
288.15 K, 65000 kPa | 802.29
293.15 K, 100 kPa | 747.63
293.15 K, 5000 kPa | 752.98
293.15 K, 10000 kPa | 757.94
293.15 K, 15000 kPa | 762.58
293.15 K, 20000 kPa | 766.89
293.15 K, 25000 kPa | 771.01
293.15 K, 30000 kPa | 774.94
293.15 K, 35000 kPa | 778.69
293.15 K, 40000 kPa | 782.3
293.15 K, 45000 kPa | 785.81
293.15 K, 50000 kPa | 789.18
293.15 K, 55000 kPa | 792.44
293.15 K, 60000 kPa | 795.56
293.15 K, 65000 kPa | 798.64
298.15 K, 100 kPa | 742.71
298.15 K, 5000 kPa | 748.24
298.15 K, 10000 kPa | 753.37
298.15 K, 15000 kPa | 758.15
298.15 K, 20000 kPa | 762.57
298.15 K, 25000 kPa | 766.81
298.15 K, 30000 kPa | 770.85
298.15 K, 35000 kPa | 774.71
298.15 K, 40000 kPa | 778.42
298.15 K, 45000 kPa | 781.98
298.15 K, 50000 kPa | 785.42
298.15 K, 55000 kPa | 788.74
298.15 K, 60000 kPa | 791.97
298.15 K, 65000 kPa | 795.06
303.15 K, 100 kPa | 737.77
303.15 K, 5000 kPa | 743.49
303.15 K, 10000 kPa | 748.78
303.15 K, 15000 kPa | 753.68
303.15 K, 20000 kPa | 758.26
303.15 K, 25000 kPa | 762.61
303.15 K, 30000 kPa | 766.76
303.15 K, 35000 kPa | 770.7
303.15 K, 40000 kPa | 774.48
303.15 K, 45000 kPa | 778.13
303.15 K, 50000 kPa | 781.64
303.15 K, 55000 kPa | 785.01
303.15 K, 60000 kPa | 788.28
303.15 K, 65000 kPa | 791.45
308.15 K, 100 kPa | 732.8
308.15 K, 5000 kPa | 738.69
308.15 K, 10000 kPa | 744.18
308.15 K, 15000 kPa | 749.22
308.15 K, 20000 kPa | 753.95
308.15 K, 25000 kPa | 758.41
308.15 K, 30000 kPa | 762.65
308.15 K, 35000 kPa | 766.7
308.15 K, 40000 kPa | 770.6
308.15 K, 45000 kPa | 774.31
308.15 K, 50000 kPa | 777.92
308.15 K, 55000 kPa | 781.37
308.15 K, 60000 kPa | 784.7
308.15 K, 65000 kPa | 787.86
313.15 K, 100 kPa | 727.8
313.15 K, 5000 kPa | 733.9
313.15 K, 10000 kPa | 739.57
313.15 K, 15000 kPa | 744.77
313.15 K, 20000 kPa | 749.62
313.15 K, 25000 kPa | 754.2
313.15 K, 30000 kPa | 758.55
313.15 K, 35000 kPa | 762.71
313.15 K, 40000 kPa | 766.68
313.15 K, 45000 kPa | 770.47
313.15 K, 50000 kPa | 774.17
313.15 K, 55000 kPa | 777.67
313.15 K, 60000 kPa | 781.06
313.15 K, 65000 kPa | 784.29
318.15 K, 100 kPa | 722.77
318.15 K, 5000 kPa | 729.04
318.15 K, 10000 kPa | 735.01
318.15 K, 15000 kPa | 740.33
318.15 K, 20000 kPa | 745.32
318.15 K, 25000 kPa | 750.04
318.15 K, 30000 kPa | 754.51
318.15 K, 35000 kPa | 758.76
318.15 K, 40000 kPa | 762.84
318.15 K, 45000 kPa | 766.72
318.15 K, 50000 kPa | 770.47
318.15 K, 55000 kPa | 774.07
318.15 K, 60000 kPa | 777.53
318.15 K, 65000 kPa | 780.73
323.15 K, 100 kPa | 717.7
323.15 K, 5000 kPa | 724.25
323.15 K, 10000 kPa | 730.31
323.15 K, 15000 kPa | 735.84
323.15 K, 20000 kPa | 741
323.15 K, 25000 kPa | 745.84
323.15 K, 30000 kPa | 750.43
323.15 K, 35000 kPa | 754.79
323.15 K, 40000 kPa | 758.96
323.15 K, 45000 kPa | 762.93
323.15 K, 50000 kPa | 766.76
323.15 K, 55000 kPa | 770.41
323.15 K, 60000 kPa | 773.95
323.15 K, 65000 kPa | 777.21
328.15 K, 100 kPa | 712.59
328.15 K, 5000 kPa | 719.28
328.15 K, 10000 kPa | 725.68
328.15 K, 15000 kPa | 731.37
328.15 K, 20000 kPa | 736.67
328.15 K, 25000 kPa | 741.66
328.15 K, 30000 kPa | 746.37
328.15 K, 35000 kPa | 750.85
328.15 K, 40000 kPa | 755.1
328.15 K, 45000 kPa | 759.16
328.15 K, 50000 kPa | 763.06
328.15 K, 55000 kPa | 766.79
328.15 K, 60000 kPa | 770.38
328.15 K, 65000 kPa | 773.71
333.15 K, 100 kPa | 707.45
333.15 K, 5000 kPa | 714.57
333.15 K, 10000 kPa | 721.03
333.15 K, 15000 kPa | 726.88
333.15 K, 20000 kPa | 732.34
333.15 K, 25000 kPa | 737.47
333.15 K, 30000 kPa | 742.3
333.15 K, 35000 kPa | 746.89
333.15 K, 40000 kPa | 751.24
333.15 K, 45000 kPa | 755.35
333.15 K, 50000 kPa | 759.32
333.15 K, 55000 kPa | 763.16
333.15 K, 60000 kPa | 766.84
333.15 K, 65000 kPa | 770.23
